Some test systems named below: UACC-257 melanoma; U251 CNS; M14 melanoma; OVCAR-4 ovarian; SNB-75 CNS; SK-MEL-5 melanoma; A498 renal; A549 NSCLC; 786-0 renal; LOX IMVI melanoma; SF-268 CNS; HCT-15 colon; MDA-MB-435; HOP-62 NSCLC; HOP-92 NSCLC; HS 578T breast; CAKI-1 renal; SR leukemia; BT-549 breast.
Common to all, as to experiment: NCI anticancer screen, dose series, 48 h

The results in this text go back to PubChem BioAssay (NCI).

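Following 48 hours of exposure in 96-well plates, responses at five concentrations were used to interpolate endpoints linearly. The concentration for full growth arrest is given as TGI.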

`CC(Oc1ccc(OCC2CCCCC2)cc1)C(=O)NCCO` (stereo not given): the TGI with UACC-257 melanoma, in the experiment on U251 CNS, in the experiment with M14 melanoma, in the experiment on OVCAR-4 ovarian, in the experiment with SNB-75 CNS and with SK-MEL-5 melanoma was greater than 100 µM in each case. For the same compound, the TGI with A498 renal, in the experiment on A549 NSCLC, in the experiment on 786-0 renal, in the experiment with LOX IMVI melanoma, in the experiment on SF-268 CNS and with HCT-15 colon was greater than 100 µM in each case.
Turning to `CC1CCCCN1CC(=O)c1ccc2c(c1)Sc1ccccc1O2` (stereo not given), the TGI stood at 39 µM with UACC-257 melanoma; 29.8 µM in the experiment on MDA-MB-435; 31.9 µM with U251 CNS; 38.3 µM in the experiment on M14 melanoma; 30.7 µM in the experiment on HOP-62 NSCLC; 28.6 µM in the experiment with OVCAR-4 ovarian. For the same compound, the TGI in the experiment on HOP-92 NSCLC came to 30.5 µM; in the experiment on SNB-75 CNS, 22.9 µM; in the experiment with A498 renal, 38.6 µM; in the experiment with A549 NSCLC, 30.7 µM; with 786-0 renal it was 31.9 µM; in the experiment on HS 578T breast, 25.7 µM. In addition, the TGI amounted to 38.7 µM with LOX IMVI melanoma; 34.2 µM in the experiment with SF-268 CNS; 37.5 µM with CAKI-1 renal; 47.8 µM with SR leukemia; 45.2 µM in the experiment on HCT-15 colon.
Turning to `O=c1c(C2=NCCC2)c(-c2ccc[nH]2)[nH]n1-c1ccccc1`, the TGI with UACC-257 melanoma, in the experiment with MDA-MB-435, in the experiment with U251 CNS, in the experiment on M14 melanoma, in the experiment with OVCAR-4 ovarian and with HOP-92 NSCLC was greater than 100 µM each time. The TGI in the experiment with SNB-75 CNS, with SK-MEL-5 melanoma, with A498 renal, in the experiment with A549 NSCLC, in the experiment with 786-0 renal and with LOX IMVI melanoma was greater than 100 µM throughout. The TGI in the experiment with SF-268 CNS, with BT-549 breast, in the experiment with CAKI-1 renal and in the experiment on HCT-15 colon was greater than 100 µM in each case.
Consider `O=C(CC(C(=O)c1cccs1)c1cccs1)c1ccccc1Cl` (stereo not given), for which the TGI in the experiment on UACC-257 melanoma, in the experiment with MDA-MB-435, in the experiment with U251 CNS, with M14 melanoma, with HOP-62 NSCLC and in the experiment on OVCAR-4 ovarian was greater than 100 µM in each case. Besides, the TGI with SNB-75 CNS, in the experiment with SK-MEL-5 melanoma, in the experiment on A498 renal, in the experiment with A549 NSCLC, in the experiment on 786-0 renal and in the experiment with HS 578T breast was greater than 100 µM in each case. Besides, the TGI with LOX IMVI melanoma, with SF-268 CNS, in the experiment on CAKI-1 renal, with SR leukemia and in the experiment with HCT-15 colon was greater than 100 µM throughout.
Take `O=[N+]1ON=C(c2ccccc2)C1=C1C(c2c(-c3ccccc3)no[n+]2[O-])=NON1[O-]`: the TGI in the experiment on UACC-257 melanoma is 67.3 µM; in the experiment with MDA-MB-435, 6.56 µM; in the experiment on M14 melanoma it was greater than 100 µM; in the experiment on HOP-62 NSCLC, 55.1 µM; in the experiment on OVCAR-4 ovarian, 9.79 µM; with HOP-92 NSCLC it was 70.1 µM. Besides, the TGI in the experiment with SNB-75 CNS is 33.2 µM; in the experiment with SK-MEL-5 melanoma, greater than 100 µM; in the experiment with A498 renal it was 43.7 µM; in the experiment on A549 NSCLC, greater than 100 µM; in the experiment with 786-0 renal, 31.2 µM; in the experiment on HS 578T breast, greater than 100 µM. Besides, the TGI in the experiment on LOX IMVI melanoma was 8.67 µM; in the experiment with SF-268 CNS, greater than 100 µM; with CAKI-1 renal, 56.7 µM; in the experiment on SR leukemia, greater than 100 µM.
`c1cnc2c(c1)-n1cccc1C1(CCSC1)NN2` (stereo not given): the TGI in the experiment with UACC-257 melanoma, in the experiment on U251 CNS, in the experiment with M14 melanoma, with HOP-62 NSCLC, with OVCAR-4 ovarian and in the experiment on SNB-75 CNS was greater than 100 µM throughout. The TGI in the experiment on SK-MEL-5 melanoma, with A549 NSCLC, in the experiment on 786-0 renal, in the experiment on LOX IMVI melanoma, in the experiment with SF-268 CNS and in the experiment with CAKI-1 renal was greater than 100 µM throughout. Further, the TGI in the experiment on SR leukemia and with HCT-15 colon was greater than 100 µM in each case.
Consider `O=c1oc2ccccc2c(O)c1/C=N/C(=S)NCc1ccccc1`, for which the TGI in the experiment on UACC-257 melanoma, with MDA-MB-435, in the experiment on U251 CNS, with M14 melanoma, in the experiment with HOP-62 NSCLC and with OVCAR-4 ovarian was greater than 100 µM throughout. The TGI with HOP-92 NSCLC, in the experiment on SNB-75 CNS, in the experiment with SK-MEL-5 melanoma, with A549 NSCLC, with 786-0 renal and with LOX IMVI melanoma was greater than 100 µM each time. For the same compound, the TGI in the experiment on BT-549 breast is 41.5 µM; with CAKI-1 renal, 63.7 µM; in the experiment on HCT-15 colon, greater than 100 µM.
As for `COC(CC1(/C=C/O[Si](C(C)C)(C(C)C)C(C)C)C(=O)N(COCC[Si](C)(C)C)c2ccccc21)OC` (stereo not given), the TGI in the experiment on UACC-257 melanoma is greater than 100 µM; with MDA-MB-435, 60.9 µM; with U251 CNS, greater than 100 µM; with M14 melanoma, greater than 100 µM; with HOP-62 NSCLC, greater than 100 µM; in the experiment on OVCAR-4 ovarian it was greater than 100 µM. For the same compound, the TGI with HOP-92 NSCLC is 60 µM; in the experiment with SNB-75 CNS it was greater than 100 µM; with SK-MEL-5 melanoma, greater than 100 µM; in the experiment with A498 renal, greater than 100 µM; with A549 NSCLC it was greater than 100 µM; in the experiment with 786-0 renal it was greater than 100 µM. In addition, the TGI is greater than 100 µM with HS 578T breast; 52.9 µM in the experiment with LOX IMVI melanoma; 38.4 µM in the experiment on SF-268 CNS; greater than 100 µM with CAKI-1 renal; greater than 100 µM with SR leukemia; greater than 100 µM in the experiment with HCT-15 colon.
Turning to `Cc1ccc(NCC(=O)N2CC(=O)Nc3ccccc32)cc1`, the TGI in the experiment on UACC-257 melanoma, in the experiment on U251 CNS, in the experiment with M14 melanoma, in the experiment on HOP-62 NSCLC, with OVCAR-4 ovarian and in the experiment on HOP-92 NSCLC was greater than 100 µM throughout. Also, the TGI in the experiment with SNB-75 CNS, in the experiment on SK-MEL-5 melanoma, with A549 NSCLC, in the experiment on 786-0 renal, with LOX IMVI melanoma and with SF-268 CNS was greater than 100 µM throughout. Also, the TGI with CAKI-1 renal, with SR leukemia and in the experiment with HCT-15 colon was greater than 100 µM in each case.
